“And” between values parts separate entries of the source, which are not always exact repeats. Equal values may be shown once. Inconclusive results and toxic doses are left out.
System: P388 leukemia ip, CD2F1 mice, survival T/C
Assay: NCI In Vivo Anticancer Drug Screen. Data for tumor model P388 Leukemia (intraperitoneal) in CD2F1 (CDF1) mice
Conditions: endpoint: median survival time, higher = longer survival
How it was run: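 Mice carrying the transplanted tumor received test compound or vehicle. Survival was recorded in each group, and the value is the treated-group measurement divided by that of the vehicle-treated control group.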

[1] = dose: 50.0 mg/kg/injection, schedule: Q01DX005 (ip), vehicle: saline with Tween-80
[2] = dose: 50.0 mg/kg/injection, schedule: Q01DX009 (ip), vehicle: saline
[3] = dose: 100.0 mg/kg/injection, schedule: Q01DX009 (ip), vehicle: saline
[4] = dose: 200.0 mg/kg/injection, schedule: Q01DX009 (ip), vehicle: saline
[5] = dose: 100.0 mg/kg/injection, schedule: Q01DX009 (ip), vehicle: saline with Tween-80

CC1CC(C)C(C)C(C)(CN(C)C)C1 (stereo unspecified)
T/C (dose: 12.5 mg/kg/injection, schedule: Q01DX005 (ip), vehicle: saline with Tween-80): 102 % of control | T/C (dose: 25.0 mg/kg/injection, schedule: Q01DX005 (ip), vehicle: saline with Tween-80): 98 % of control | T/C [1]: 100 % of control and 96 % of control

C/C=C(/C)C(=O)OC1C[C@@]2(C)OC2C(OC(C)=O)[C@@]2(C)CC[C@@](O)(C(C)C)C12 (stereo partly specified)
T/C (dose: 35.0 mg/kg/injection, schedule: Q01DX005 (ip), vehicle: saline with Tween-80): 101 % of control | T/C (dose: 70.0 mg/kg/injection, schedule: Q01DX005 (ip), vehicle: saline with Tween-80): 96 % of control | T/C (dose: 140.0 mg/kg/injection, schedule: Q01DX005 (ip), vehicle: saline with Tween-80): 90 % of control

CCCCC(C)(CN(C)C)C(=O)/C=C/c1ccccc1 (stereo unspecified)
T/C [2]: 108 % of control | T/C [3]: 115 % of control | T/C [4]: 86 % of control

CC1CCC(OC(=O)NCCCl)CC1 (stereo unspecified)
T/C (dose: 50.0 mg/kg/injection, schedule: Q01DX005 (ip), vehicle: Klucel (hydroxypropylcellulose) (HPC)): 97 % of control | T/C (dose: 100.0 mg/kg/injection, schedule: Q01DX005 (ip), vehicle: Klucel (hydroxypropylcellulose) (HPC)): 96 % of control | T/C (dose: 200.0 mg/kg/injection, schedule: Q01DX005 (ip), vehicle: Klucel (hydroxypropylcellulose) (HPC)): 101 % of control

COC(=O)C1(C)CCCC2(C)c3cc(OC)ccc3C3(CC12)OCCO3 (stereo unspecified)
T/C (dose: 5.0 mg/kg/injection, schedule: Q01DX009 (ip), vehicle: saline): 98 % of control | T/C (dose: 10.0 mg/kg/injection, schedule: Q01DX009 (ip), vehicle: saline): 95 % of control | T/C (dose: 20.0 mg/kg/injection, schedule: Q01DX009 (ip), vehicle: saline): 89 % of control

COc1cc(O)c2c(O)c3c(=O)cc(C)oc3cc2c1
T/C (dose: 25.0 mg/kg/injection, schedule: Q01DX009 (ip), vehicle: saline with Tween-80): 102 % of control | T/C (dose: 50.0 mg/kg/injection, schedule: Q01DX009 (ip), vehicle: saline with Tween-80): 109 % of control | T/C [5]: 112 % of control

COC(=O)C1CO[C@@H](C(C)(C)C)N1C=O (stereo partly specified)
T/C (dose: 60.0 mg/kg/injection, schedule: Q01DX005 (ip), vehicle: saline): 104 % of control | T/C (dose: 120.0 mg/kg/injection, schedule: Q01DX005 (ip), vehicle: saline): 110 % of control | T/C (dose: 240.0 mg/kg/injection, schedule: Q01DX005 (ip), vehicle: saline): 101 % of control

CCOC(=O)c1c[nH]n(Cc2ccccc2)c1=O
T/C (dose: 60.0 mg/kg/injection, schedule: Q01DX005 (ip), vehicle: saline with Tween-80): 100 % of control | T/C (dose: 120.0 mg/kg/injection, schedule: Q01DX005 (ip), vehicle: saline with Tween-80): 100 % of control | T/C (dose: 240.0 mg/kg/injection, schedule: Q01DX005 (ip), vehicle: saline with Tween-80): 95 % of control

Cc1ccccc1C1N=C2Oc3ccccc3C=C2C(=O)N1 (stereo unspecified)
T/C (dose: 12.5 mg/kg/injection, schedule: Q01DX005 (ip), vehicle: Klucel (hydroxypropylcellulose) (HPC)): 100 % of control and 102 % of control and 98 % of control | T/C (dose: 25.0 mg/kg/injection, schedule: Q01DX005 (ip), vehicle: Klucel (hydroxypropylcellulose) (HPC)): 93 % of control

Cc1noc(/C=C\c2ccccc2O)c1[N+](=O)[O-]
T/C [1]: 92 % of control | T/C (dose: 100.0 mg/kg/injection, schedule: Q01DX005 (ip), vehicle: saline with Tween-80): 99 % of control | T/C (dose: 200.0 mg/kg/injection, schedule: Q01DX005 (ip), vehicle: saline with Tween-80): 97 % of control

S=C(S)N1CCOCC1
T/C (dose: 50.0 mg/kg/injection, schedule: Q04DX003 (ip), vehicle: saline): 100 % of control | T/C (dose: 100.0 mg/kg/injection, schedule: Q04DX003 (ip), vehicle: saline): 100 % of control | T/C (dose: 200.0 mg/kg/injection, schedule: Q04DX003 (ip), vehicle: saline): 100 % of control

CN(C)CCN(C(=O)C(O)(c1ccccc1)c1ccccc1)c1ccccc1
T/C [2]: 100 % of control | T/C [3]: 100 % of control | T/C [4]: 107 % of control

Cc1cccnc1NS(=O)(=O)c1ccccc1
T/C [5]: 100 % of control | T/C (dose: 200.0 mg/kg/injection, schedule: Q01DX009 (ip), vehicle: saline with Tween-80): 100 % of control | T/C (dose: 400.0 mg/kg/injection, schedule: Q01DX009 (ip), vehicle: saline with Tween-80): 100 % of control

CCC(C)(F)C(N)C(=O)O (stereo unspecified)
T/C (dose: 50.0 mg/kg/injection, schedule: Q01DX005 (ip), vehicle: saline): 100 % of control | T/C (dose: 100.0 mg/kg/injection, schedule: Q01DX005 (ip), vehicle: saline): 97 % of control | T/C (dose: 200.0 mg/kg/injection, schedule: Q01DX005 (ip), vehicle: saline): 100 % of control

O=N[O-].O=[N+]([O-])O.[Co+3].[NH2-].[NH2-].[NH2-].[NH2-].[NH2-]
T/C (dose: 12.5 mg/kg/injection, schedule: Q01DX001 (ip), vehicle: saline): 97 % of control | T/C (dose: 25.0 mg/kg/injection, schedule: Q01DX001 (ip), vehicle: saline): 110 % of control

CC(=O)C1CCC(=O)N1C(C)=O (stereo unspecified)
T/C [2]: 100 % of control | T/C [3]: 106 % of control | T/C [4]: 114 % of control
